According to US11439646B2, “Anti-proliferative agents for treating PAH” (Pfizer Inc., priority 2016, dated 2022):
Read-outs that look alike come from different tables or passages of the source.

Experiments:
Format in all cases: cell-based
human primary PASMCs = test: BrdU cell proliferation assay, human primary PASMCs; conditions: PASMC
Method: (§1) Cell proliferation assay. Primary PASMCs and PAAFs from normal human subjects (ScienCell Research Laboratories, San Diego, Calif., USA) and rat primary PASMCs (Cell Applications, San Diego, Calif., USA) were plated in CellBIND® 96-well plates in Dulbecco's modification of Eagle's medium (DMEM) containing 5% fetal bovine serum (FBS), and serum-starved for 24 h in DMEM containing 0.1% FBS. Cells were first pre-incubated with different concentrations of palbociclib (in triplicates) for 30 minutes, and then 30 ng/ml PDGF-BB or 5% FBS was added to stimulate cell proliferation. Cells were maintained for 48 h before the proliferation rate was evaluated using the Cell Proliferation ELISA BrdU (bromodeoxyuridine) Luminescence Kit (Roche Diagnostics, Mannheim, Germany). BrdU was added to the medium 16 h before the quantification of BrdU incorporation. This procedure was use to generate data as presented in at least FIGS. 1a, 1b, 1c, and 1d. IC50 values were calculated for any given inhibitor by determining the concentration of compound needed to inhibit 50% of the response applied to the system. IC50 values were derived from the four parameter logistic equation which was fit to the compound concentration response data.

rat primary PASMCs = test: BrdU cell proliferation assay, rat primary PASMCs; conditions: PASMC, 24 h, 5% FBS, average of 3, FIG. 1d, read-out: IC50, proliferation of rat primary PASMCs induced by 5% FBS
Method: as §1

human primary PAAFs = test: BrdU cell proliferation assay, human primary PAAFs; conditions: serum, average of 3, FIG. 1c, read-out: IC50, serum-induced proliferation of human primary PAAFs
Method: as §1

phospho-Rb (Ser807/811) = test: In-cell western analysis of Rb phosphorylation in human PASMCs; conditions: for IC50: PASMC
Method: In-cell western analysis. Primary PASMCs from normal human subjects were cultured and serum-starved as described above. Cells were first pre-incubated with different concentrations of palbociclib for 60 minutes, and then either 5% FBS or 10% FBS or 30 ng/ml PDGF-BB was added to stimulate cell proliferation and Rb phosphorylation. The effect of Palbociclib on Rb phosphorylation was evaluated 24 h later, using in-cell western assay according to the manufacturer's instructions (Li-Cor Biosciences, Lincoln, Nebr., USA). Phosphorylated Rb was measured using a rabbit monoclonal antibody anti-phospho-Rb (Ser807/811) (Cell Signaling Technology, Inc., Danvers, Mass., USA), followed by detection with IRDye 800CW infrared fluorescent dye-labeled goat anti-rabbit secondary antibody. Actin levels were measured using mouse anti-actin monoclonal antibodies (pan Ab-5) (Fisher Scientific Pittsburgh, Pa., USA; Sigma Aldrich, St. Louis, Mo., USA), and followed by detection with IRDye 680RD-labeled goat anti-mouse secondary antibody. See FIG. 2a where 5% FBS was used, FIG. 2b where PDGF-BB was used, and FIG. 2c where 10% FBS was used.

CC(=O)c1c(C)c2cnc(Nc3ccc(N4CCNCC4)cn3)nc2n(C2CCCC2)c1=O [Palbociclib, 6-acetyl-8-cyclopentyl-5-methyl-2-{[5-(piperazin-1-yl)pyridin-2yl]amino}pyrido[2,3-d]pyrimidin-7(8H)-one]
IC50 (human primary PASMCs; 30 ng/ml PDGF-BB, average of 3, FIG. 1a, read-out: IC50, PDGF-BB induced proliferation of human primary PASMCs): 7.4 nM | IC50 (human primary PASMCs; 5% FBS, average of 3, FIG. 1b, read-out: IC50, proliferation of human primary PASMCs induced by 5% FBS): 7.4 nM | IC50 (rat primary PASMCs): 27.4 nM | IC50 (human primary PAAFs): 21.6 nM | IC50 (phospho-Rb (Ser807/811); Homo sapiens, 10% FBS, N = 6, FIG. 2c, read-out: Average IC50 (nM), inhibition of phosphorylation of Rb in hPASMCs): 64.2 nM | IC50 (phospho-Rb (Ser807/811); human PASMCs, 5% FBS, FIG. 2a, read-out: IC50, serum-induced Rb phosphorylation): 14.9 nM | IC50 (phospho-Rb (Ser807/811); human PASMCs, PDGF-BB, FIG. 2b, read-out: IC50, PDGF-BB induced Rb phosphorylation): 5.2 nM | effect on total Rb levels (phospho-Rb (Ser807/811); human primary PASMCs, 5% FBS or PDGF-BB): little effect
